Reference: patent US12583868B2, “JAK inhibitors and methods for synthesizing and using thereof” (GALDERMA HOLDING SA, priority 2020, dated 2026)
“Also recorded” adds a separate entry of the source.

Experiments:
[1] = test system: Salmonella typhimurium TA98 and TA100; assay: Mini Ames assay (TA98 and TA100); assay type: cell-based; details: TA98 & TA100, with and without metabolic activation (S9)
Excerpt: The Ames test in micro-method (in 6-well plates=mini Ames) follows the general principles of the standard Ames's technique. The Ames test used strains of bacteria Salmonella typhimurium that carry mutations in the genes involved in histidine synthesis. These strains are auxotrophic mutants, they require histidine for growth but cannot produce it. The assay was used to observe the ability of the test item to induce reverse mutations allowing the bacteria to grow in a histidine-free medium. The number of bacteria that revert and acquire the wild-type ability to grow in the absence of histidine can be estimated by counting the colonies that develop upon incubation. The use of different strains allows the identification of different mechanisms of gene mutation (TA98 for detection of frameshift mutations and TA100 for detection of base pair substitutions). […]
A toxicity assessment was performed on complete nutriment agar plate (with histidine) to define the highest concentration to be used in the genotoxicity assay. […] The first concentration analyzed in the well (6-well plate) was 500 μg per plate followed by 7 serial dilutions (2 times factor of dilution). […] The viability of the positive and negative controls was analyzed for each strain, in the presence or absence of metabolic activation system, and were compared with historical data to validate the study. […]

[2] = test system: p-STAT3Y705 in skin; assay: In vivo pharmacodynamy model: IL-6 induced Phospho-STAT3, topical; set-up: species or system BALB/c ByJ Rj mice; PD/IL6 mouse top @1 mM % vs Tofa: unit not given here; details: topical 1 mM, PG/EtOH 3/7
[3] = target: T1, JAK3 (Homo sapiens, UniProt P52333); assay: In vitro enzyme assay (Cisbio kinase assay), JAK3; assay type: biochemical; details: ATP 300 μM; read-out: Enzymatic assay: JAK3
T1 construct: purchased Life Technologies PV3855
T1 sequence (P52333 1-1124): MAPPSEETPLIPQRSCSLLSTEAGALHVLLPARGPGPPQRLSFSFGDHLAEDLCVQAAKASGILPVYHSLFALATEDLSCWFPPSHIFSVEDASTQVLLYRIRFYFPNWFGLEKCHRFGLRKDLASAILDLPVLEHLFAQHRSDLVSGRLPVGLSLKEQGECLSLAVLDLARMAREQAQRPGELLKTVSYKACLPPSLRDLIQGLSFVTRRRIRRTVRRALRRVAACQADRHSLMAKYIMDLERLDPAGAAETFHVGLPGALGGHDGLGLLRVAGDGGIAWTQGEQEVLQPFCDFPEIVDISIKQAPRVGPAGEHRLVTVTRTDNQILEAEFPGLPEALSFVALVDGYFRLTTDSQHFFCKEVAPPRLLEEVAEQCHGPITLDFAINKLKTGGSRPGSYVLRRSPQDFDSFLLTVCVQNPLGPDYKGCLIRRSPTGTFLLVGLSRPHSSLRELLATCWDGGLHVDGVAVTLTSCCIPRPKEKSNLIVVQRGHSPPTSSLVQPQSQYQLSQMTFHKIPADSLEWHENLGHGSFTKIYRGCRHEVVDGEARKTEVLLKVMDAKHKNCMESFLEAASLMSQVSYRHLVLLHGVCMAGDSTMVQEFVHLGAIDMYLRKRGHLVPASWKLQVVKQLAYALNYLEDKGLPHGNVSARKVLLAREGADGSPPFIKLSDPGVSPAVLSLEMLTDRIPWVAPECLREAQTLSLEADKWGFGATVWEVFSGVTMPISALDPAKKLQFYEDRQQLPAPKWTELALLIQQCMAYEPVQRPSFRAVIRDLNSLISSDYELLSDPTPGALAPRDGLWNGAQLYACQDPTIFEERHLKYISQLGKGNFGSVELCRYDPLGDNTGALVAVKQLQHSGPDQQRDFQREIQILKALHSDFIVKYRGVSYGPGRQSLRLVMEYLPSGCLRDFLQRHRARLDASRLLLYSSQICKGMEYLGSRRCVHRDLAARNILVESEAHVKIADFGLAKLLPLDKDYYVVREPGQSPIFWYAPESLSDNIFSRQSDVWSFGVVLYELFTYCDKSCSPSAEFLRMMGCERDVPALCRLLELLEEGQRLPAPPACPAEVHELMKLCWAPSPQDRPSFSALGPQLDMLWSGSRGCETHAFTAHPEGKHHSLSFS

[4] = iv PK mice; details: female, mouse, in vivo
Excerpt: Other studies including, but not limited to, CaCO2 permeability, metabolite profiling in human microsomes (Syneos 7007703.SA.186) and in human hepatocytes (Syneos 7007703.SA.185), metabolite M3b structural elucidation (Syneos 7007703.SA.186), mouse iv female (ODS CFH-1798), mouse iv+ABT females (ODS CFH 1799), mouse topical d1,d10 (ODS Study Number: NBK39-32, 12 Sep. 2019, ELN Bioanalysis study: NBK156-79), rat iv (Pharmaron PH-DMPK-GAL-20-002), dog topical d1, d10 (CRL FY19.085) and minipig topical PK dl, d7 (Pharmaron 92404-19-914) are also conducted using the standard protocols known in the art.

[5] = Protein binding analysis (RED), mouse plasma; assay type: in vitro ADME, male balb-c mice; details: 5 μM
Procedure: The protein binding was assessed in plasma of Human, male balb-c mice, male Wistar Han rat, male Göttingen minipig by rapid equilibrium dialysis (RED) devices. After the plasma and buffer phosphate 50 mM pH7.4 were equilibrated at 37° C., the compound was added to plasma to reach a final concentration of 5 μM. An aliquot of plasma was withdrawn immediately. Equilibration under mild agitation was continued for 4 h. The plasma and buffer were sampled and samples were quenched with 4 volumes of acetonitrile and centrifuged. Supernatant was quantified in HPLC/MS/MS to calculate the recovery and the percentage of compound dissolved in the buffer (unbound) and bound to plasma proteins.

For `O=S(=O)(N[C@H]1C[C@@H](N2CCOc3cnc4[nH]ccc4c32)C1)C1CN(C2CC2)C1` [Compound E, 1-Cyclopropyl-N-((cis)-3-(2,3-dihydropyrrolo[3′,2′:5,6]pyrido[3,4-b][1,4]oxazin-1(7H)-yl)cyclobutyl)azetidine-3-sulfonamide], the AMES [1] was “not considered to be mutagenic; also recorded: Neg/Neg”, the “PD/IL6 mouse top @1 mM % inh vs vehicle” value [2] was 63% and the “PD/IL6 mouse top @1 mM % vs Tofa” value [2] was 0.97. It also gave an IC50 [3] of over 10 µM, a Vd [4] of 2.6 L/kg and a clearance ([4]; read-out: iv PK mice: Cl) of 140 mL/min/kg. It also gave a half-life ([4]; read-out: iv PK mice: t½) of 26.4 min and a mFU [5] of 28%.
